According to the CheMixHub ionic liquid set:

Experiment: xn = mol fraction of the nth substance listed

C[N+](C)(C)Cc1ccccc1.[Cl-] + O=C([O-])c1ccccc1O.[Na+] + O
viscosity [mPa·s], 100 kPa
Conditions	298.15 K	303.15 K	308.15 K	313.15 K	318.15 K
x1 = 9.698e-05, x2 = 0.001545	0.924	0.833	0.75	0.651	0.564
x1 = 9.701e-05, x2 = 0.00127	0.916	0.827	0.744	0.648	0.561
x1 = 9.703e-05, x2 = 0.0009982	0.91	0.821	0.739	0.642	0.557
x1 = 9.706e-05, x2 = 0.0007245	0.905	0.816	0.734	0.637	0.551
x1 = 9.709e-05, x2 = 0.0004525	0.9	0.811	0.729	0.633	0.547
x1 = 9.711e-05, x2 = 0.0001803	0.896	0.807	0.725	0.629	0.543
x1 = 0.0002915, x2 = 0.001548	0.926	0.836	0.753	0.648	0.56
x1 = 0.0002916, x2 = 0.001	0.915	0.824	0.742	0.639	0.552
x1 = 0.0002916, x2 = 0.001272	0.921	0.83	0.747	0.644	0.556
x1 = 0.0002917, x2 = 0.0007258	0.909	0.819	0.736	0.635	0.547
x1 = 0.0002918, x2 = 0.0004533	0.903	0.814	0.732	0.63	0.544
x1 = 0.0002919, x2 = 0.0001807	0.898	0.809	0.727	0.625	0.539
x1 = 0.0004867, x2 = 0.001551	0.932	0.843	0.759	0.664	0.577
x1 = 0.0004868, x2 = 0.001275	0.926	0.836	0.753	0.659	0.572
x1 = 0.0004869, x2 = 0.001002	0.919	0.831	0.748	0.654	0.568
x1 = 0.0004871, x2 = 0.0007272	0.914	0.825	0.743	0.648	0.563
x1 = 0.0004872, x2 = 0.0004542	0.907	0.82	0.737	0.644	0.558
x1 = 0.0004873, x2 = 0.000181	0.903	0.815	0.732	0.64	0.554

CC[n+]1ccn(C)c1.O=S(=O)([N-]S(=O)(=O)C(F)(F)F)C(F)(F)F + O=S(=O)([N-]S(=O)(=O)C(F)(F)F)C(F)(F)F.[Li+]
101 kPa, x1 = 1
Conditions	electrical conductivity [S/m]	viscosity [mPa·s]
288.15 K	0.611	–
298.15 K	0.883	–
313.15 K	–	19.26
333.15 K	2.18	–
343.15 K	–	9.46

CC[n+]1ccn(C)c1.O=S(=O)([N-]S(=O)(=O)C(F)(F)F)C(F)(F)F + O=S(=O)([O-])C(F)(F)F.[Li+]
101 kPa, x1 = 1
Conditions	electrical conductivity [S/m]
288.15 K	0.611
298.15 K	0.883
333.15 K	2.18

C[N+](C)(C)Cc1ccccc1.[Cl-] + OCC(O)CO
Conditions	electrical conductivity, 298 K [S/m]	viscosity, 288.15 K [mPa·s]	viscosity, 308 K [mPa·s]
100 kPa, x1 = 0.25	–	1875	–
101.13 kPa, x1 = 0.5	0.069	–	80

CCCCCCCCCCCC[P+](CCCC)(CCCC)CCCC.N#Cc1ccc[n-]1 + OCCN(CCO)CCO
100 kPa
Conditions	electrical conductivity [S/m]	viscosity [mPa·s]
293.15 K, x1 = 0.001	0.0001	–
293.15 K, x1 = 0.015	0.0027	–
293.15 K, x1 = 0.035	0.0034	1037
293.15 K, x1 = 0.121	–	1056
293.15 K, x1 = 0.538	0.0049	770
293.15 K, x1 = 1	0.0082	567
298.15 K, x1 = 0.035	–	670
298.15 K, x1 = 0.325	–	623
298.15 K, x1 = 0.755	–	477
298.15 K, x1 = 1	–	389
303.15 K, x1 = 0.017	–	436
303.15 K, x1 = 0.054	–	439
303.15 K, x1 = 0.325	–	421
303.15 K, x1 = 0.755	–	336
303.15 K, x1 = 1	–	297
313.15 K, x1 = 0.096	–	217
313.15 K, x1 = 0.325	–	209

CC[n+]1ccn(C)c1.F[B-](F)(F)F + OCCO
Conditions	viscosity [mPa·s]
293.15 K, 100 kPa, x2 = 0.6954	14.9
298.15 K, 100 kPa, x2 = 0.283	19.8
298.15 K, 100 kPa, x2 = 0.4435	15.1
303.15 K, 100 kPa, x2 = 0	34.5
303.15 K, 101 kPa, x1 = 0.4011	9.88
313.15 K, 100 kPa, x2 = 0.4435	9.71
313.15 K, 101 kPa, x1 = 0.4011	7.3
323.15 K, 100 kPa, x2 = 0.4435	7.57
323.15 K, 100 kPa, x2 = 0.5876	6.34
333.15 K, 100 kPa, x2 = 0.4435	6.08
333.15 K, 100 kPa, x2 = 0.5237	5.44
333.15 K, 100 kPa, x2 = 0.8751	4.42
333.15 K, 101 kPa, x1 = 0.0993	4.28
333.15 K, 101 kPa, x1 = 0.2001	4.08
343.15 K, 100 kPa, x2 = 0.4435	5.01
343.15 K, 100 kPa, x2 = 0.5876	4.13
353.15 K, 100 kPa, x2 = 0	9.58
353.15 K, 100 kPa, x2 = 0.5876	3.46
353.15 K, 100 kPa, x2 = 0.6954	3.07
353.15 K, 100 kPa, x2 = 0.7916	2.9

C[N+](CCO)(CCO)CCOCCO.[Cl-] + OCCO
101 kPa, x1 = 0.3322
Conditions	viscosity [mPa·s]
283.15 K	474
288.15 K	335
293.15 K	243.1
298.15 K	179.2
303.15 K	136.1
308.15 K	104.7
313.15 K	81.8
318.15 K	65.1
323.15 K	52.4
328.15 K	42.78
333.15 K	35.43
338.15 K	29.52
343.15 K	24.91
348.15 K	21.24
353.15 K	18.37

CC[n+]1ccn(C)c1.O=S(=O)([N-]S(=O)(=O)C(F)(F)F)C(F)(F)F + OCCOCCOCCOCCO
Conditions	viscosity [mPa·s]
298.15 K, 101 kPa, x2 = 0	32.3
